Results from ChEMBL document CHEMBL1135350, “Synthesis of an arabinofuranosyl disaccharide photoaffinity probe for arabinosyltransferase activity in Mycobacterium tuberculosis” (Bioorg Med Chem Lett, 2002).

Test system: Mycobacterium tuberculosis
Assay: Enzyme kinetic constant of compound for Arabinosyltransferase in Mycobacterium tuberculosis was determined

Which results are given for [N-]=[N+]=Nc1cccc2c(S(=O)(=O)NCCOC3O[C@H](COC4O[C@H](CO)[C@@H](O)[C@H]4O)[C@@H](O)[C@H]3O)cccc12 (some centres not stated)?
Km: 3.07 mM; Vmax (pM min-1 mg-1): 4.26
